Results on one molecule are retold here after paper PMC5513211, “PA-6 inhibits inward rectifier currents carried by V93I and D172N gain-of-function KIR2.1 channels, but increases channel protein expression” (Journal of Biomedical Science, 2017).

Assay [1] concerns WT, V93I and D172N KIR2.1 channels. Put plainly: Immunofluorescence microscopy of KIR2.1 localization in MES-1 cells. In kind it is cell-based, human. As to conditions: 5 μM, 24 h. As for the experimental part: HEK293T and MES-1 cells were cultured on pre-coated (0.1% gelatin) glass coverslips and transfected using Lipofectamin (Invitrogen, Breda, The Netherlands). Cell fixation, immunolabeling and imaging were performed exactly as described earlier. […] HEK293T cells were imaged by confocal microscopy using a Zeiss LSM 700 confocal microscope (Carl Zeiss Microscopy GmbH, Germany) equipped with a 63× oil immersion objective (NA 1.4). […] MES-1 cells were imaged using a conventional Nikon eclipse 80i light microscopy equipped with a 40× objective (NA 0.75).

Assay [2] has the same test system. Put plainly: Confocal immunofluorescence microscopy of KIR2.1 localization in HEK293T cells. The note with it: 24 h, WT or mutant. In kind it is cell-based, human. As for the experimental part: HEK293T and MES-1 cells were cultured on pre-coated (0.1% gelatin) glass coverslips and transfected using Lipofectamin (Invitrogen, Breda, The Netherlands). Cell fixation, immunolabeling and imaging were performed exactly as described earlier. Antibodies used were anti-KIR2.l (1:250; Santa Cruz Biotechnology, cat. no. sc-18708) and anti-Pan Cadherin (1:800, Sigma-Aldrich, St. Louis MO, USA, cat. No. C1821). HEK293T cells were imaged by confocal microscopy using a Zeiss LSM 700 confocal microscope (Carl Zeiss Microscopy GmbH, Germany) equipped with a 63× oil immersion objective (NA 1.4). Excitation was performed with an air-cooled Argon ion laser (LASOS, RMC 7812Z, 488 nm) for GFP and a HeNE (LASOS, SAN 7450A, 543 nm) laser for DyLight. MES-1 cells were imaged using a conventional Nikon eclipse 80i light microscopy equipped with a 40× objective (NA 0.75).

Another assay addresses T1, D172N KIR2.1 (Homo sapiens, UniProt P63252, D172N).
T1 construct: expressed in transfected cells; host or cells: HEK293T
T1 sequence (P63252 1-427 D172N): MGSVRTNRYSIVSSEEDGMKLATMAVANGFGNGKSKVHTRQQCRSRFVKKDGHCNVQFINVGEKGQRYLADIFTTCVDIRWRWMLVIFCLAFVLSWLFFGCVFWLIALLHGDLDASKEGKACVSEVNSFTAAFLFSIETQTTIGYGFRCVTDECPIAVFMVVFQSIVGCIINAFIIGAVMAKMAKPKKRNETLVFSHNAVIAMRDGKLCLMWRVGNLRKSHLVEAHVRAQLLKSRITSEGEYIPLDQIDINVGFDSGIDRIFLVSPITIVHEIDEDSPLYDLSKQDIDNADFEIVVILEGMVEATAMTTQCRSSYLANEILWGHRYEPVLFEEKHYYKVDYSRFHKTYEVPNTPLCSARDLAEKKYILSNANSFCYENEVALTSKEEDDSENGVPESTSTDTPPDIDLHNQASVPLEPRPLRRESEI
The experiment in a line: Inside-out patch clamp, ramp protocol, D172N KIR2.1 currents. In kind it is cell-based. As to conditions: inside-out mode; for IC50: HEK293T, 21 °C. An excerpt: Mutations V93I and D172N were engineered into a human KCNJ2-pcDNA3 expression construct, using the QuikChange II XL Site-Directed Mutagenesis Kit (Stratagene, La Jolla, CA) and custom designed primers. The presence of the introduced mutations was confirmed by Sanger sequencing.
HEK293T cells were transfected with WT, V93I or D172N constructs together with a GFP expression construct to enable detection of transfected cells. Inside-out patch clamp measurements were made using a HEKA EPC-10 Double Plus amplifier controlled by PatchMaster 2.10 software (HEKA, Lambrecht/Pfalz, Germany) at 21 °C. To record WT, V93I and D172N KIR2.1 currents, inside-out patch-clamp measurements were performed using a ramp protocol ranging from −100 to +100 mV in 5 s from a holding potential of −40 mV. Excised patches were placed in close proximity to the inflow region of the perfusion chamber. Bath solution contained 125 mM KCl, 4 mM EDTA (2K), 7.2 mM K2HPO4, 2.8 mM KH2PO4, pH 7.20/KOH. Pipette solution contained 145 mM KCl, 1 mM CaCl2, 5 mM HEPES, pH 7.40/KOH. Measurements were started following washout of polyamines/Mg^2+ from the channel pore observed by the disappearance of current rectification. For IC50 curves, fractional block at −80 and +50 mV was determined by dividing current levels obtained with PA-6 containing solutions by current levels of control traces recorded in the absence of PA-6.
Background: The patch-clamp technique gives a direct electrical read-out from membranes.

The next assay has as its target T2, WT KIR2.1 (Homo sapiens, UniProt P63252).
T2 construct: expressed in transfected cells; host or cells: HEK293T
T2 sequence (P63252 1-427): T1 sequence (P63252 1-427 D172N) with N172D
Put plainly: Western blot of KIR2.1 expression, transiently transfected HEK293T cells, WT. The note with it: 24 h. In kind it is cell-based. As for the experimental part: HEK293T cells were grown in 60 mm culture dishes containing 3 mL DMEM supplemented with 10% FCS, L-Glutamine and Pen-Strep, and transfected using linear polyethylenimine (PEI) (PolysciencesInc, Eppelheim, Germany) as described earlier. Cell lysates were prepared in buffer D (20 mM HEPES, 125 mM NaCl, 10% glycerol, 1 mM EDTA, 1 mM EGTA, 1 mM dithiothreitol, and 1% Triton X-100, pH 7.6, supplemented with 1 mM PMSF and 10 μg/mL aprotinin). 20 μg protein lysate was separated by 10% SDS-PAGE and blotted onto nitrocellulose membrane. Ponceau staining was used to reveal equal protein loading and subsequent quantification. Blots were blocked with 5% (v/v) […] in TBST (20 mM Tris-HCl pH 8.0, 150 mM NaCl, 0.05% (v/v) Tween-20) for 1 h at room temperature. KIR2.1 WT and mutants were detected by N-terminal KIR2.1 antibody (Santa Cruz Biotechnology, Dallas Tx, USA, cat. No. sc-18708) and peroxidase-conjugated donkey anti-goat secondary antibody (Jackson ImmunoResearch, West Grove, PA, cat. No. 705-035-003) followed by ECL detection procedure (GE Healthcare, Hoevelaken, The Netherlands). For quantification purposes, untransfected HEK293T cells were used as blank and protein levels were normalized to ponceau staining levels. Differences between group averages were tested by using a one-way ANOVA with a Bonferroni’s post-hoc test.
On the technique in general: In western blotting, separated proteins are transferred to a membrane and probed.

Changes are numbered by the printed parent chain. Where two headings read alike, the source gives them in different places.

With `N=C(Nc1ccc(OCCCCCOc2ccc(NC(=N)c3ccccc3)cc2)cc1)c1ccccc1` [PA-6], the entries for the “Subcellular location of KIR2.1 channels” value in assay [1], in assay [2] (1 μM) and in assay [2] (5 μM) were “resulted in intracellular accumulation”, “induced an intracellular increase of the channel proteins in small aggregates” and “further increased the level of intracellular accumulation”, respectively. Further, the IC50 (commonly the concentration that gives 50% inhibition) was determined as 129 nM on D172N KIR2.1 (at +50 mV, read-out: IC50, outward current) and 109 nM on D172N KIR2.1 (at −80 mV, read-out: IC50, inward current). Further, on D172N KIR2.1, the “Sensitivity of D172N channels relative to WT and V93I” value is “approximately two to three fold less sensitive”. The “Increase of KIR2.1 expression level” value on WT KIR2.1 (5 μM) is 6.3 ± 1.5 fold. The “Effect on KIR2.1 expression level at lower concentrations” value on WT KIR2.1 (0.2 and 1 μM) is on record as “did not result in significant increased expression”.
